Reference: ChEMBL document CHEMBL1157501, “Novel fluorinated acridone derivatives. Part 1: synthesis and evaluation as potential anticancer agents” (Bioorg Med Chem Lett, 2008)
pIC50: −log10 of the molar value.

Legend:
BT-549 [1] = experiment: Antiproliferative activity against human BT549 cells after 72 hrs by alamar blue assay; assay type: functional, cell-based; conditions: BT-549, 72 h
BT-20 = experiment: Antiproliferative activity against human BT20 cells after 72 hrs by Alamar Blue assay; assay type: functional, cell-based; conditions: BT-20, 72 h
SW480 = experiment: Antiproliferative activity against human SW480 cells after 72 hrs by Alamar Blue assay; assay type: functional, cell-based; conditions: SW480, 72 h
Jurkat = experiment: Antiproliferative activity against human Jurkat cells after 72 hrs by Alamar Blue assay; assay type: functional, cell-based
MCF7 [2] = experiment: Growth inhibition of human MCF7 cells at 10 uM relative to control; assay type: functional
T47D [3] = experiment: Growth inhibition of human T47D cells at 10 uM relative to control; assay type: functional
HOP-92 [4] = experiment: Growth inhibition of human HOP92 cells at 10 uM relative to control; assay type: functional
A549 [5] = experiment: Growth inhibition of human A549 cells at 10 uM relative to control; assay type: functional
HCT-116 [6] = experiment: Growth inhibition of human HCT116 cells at 10 uM relative to control; assay type: functional
HT-29 [7] = experiment: Growth inhibition of human HT29 cells at 10 uM relative to control; assay type: functional
MOLT-4 [8] = experiment: Growth inhibition of human MOLT4 cells at 10 uM relative to control; assay type: functional
[9] = Growth inhibition of human HL60(TB) cells at 10 uM relative to control; assay type: functional, HL-60(TB); conditions: HL-60
CCRF-CEM [10] = experiment: Growth inhibition of human CCRF-CEM cells at 10 uM relative to control; assay type: functional
CAKI-1 [11] = experiment: Growth inhibition of human CAKI1 cells at 10 uM relative to control; assay type: functional
786-0 [12] = experiment: Growth inhibition of human 786-0 cells at 10 uM relative to control; assay type: functional
UACC-257 [13] = experiment: Growth inhibition of human UACC257 cells at 10 uM relative to control; assay type: functional
SK-MEL-28 [14] = experiment: Growth inhibition of human SK-MEL-28 cells at 10 uM relative to control; assay type: functional
SF-295 [15] = experiment: Growth inhibition of human SF295 cells at 10 uM relative to control; assay type: functional
SNB-75 [16] = experiment: Growth inhibition of human SNB75 cells at 10 uM relative to control; assay type: functional
DU-145 = experiment: Anticancer activity against human DU145 cells; assay type: functional
MCF7 [17] = experiment: Anticancer activity against human MCF7 cells; assay type: functional
NCI/ADR-RES = experiment: Anticancer activity against human NCI/ADR-RES cells; assay type: functional
MDA-MB-231 = experiment: Anticancer activity against human MDA-MB-231 cells; assay type: functional
Hs-578T = experiment: Anticancer activity against human HS578T cells; assay type: functional
MDA-MB-435 = experiment: Anticancer activity against human MDA-MB-435 cells; assay type: functional
BT-549 [18] = experiment: Anticancer activity against human BT549 cells; assay type: functional
T47D [19] = experiment: Anticancer activity against human T47D cells; assay type: functional
MDA-MB-468 = experiment: Anticancer activity against human MDA-MB-468 cells; assay type: functional
CCRF-CEM [20] = experiment: Anticancer activity against human CCRF-CEM cells; assay type: functional
[21] = Anticancer activity against human HL60(TB) cells; assay type: functional; conditions: HL-60
K562 = experiment: Anticancer activity against human K562 cells; assay type: functional
MOLT-4 [22] = experiment: Anticancer activity against human MOLT4 cells; assay type: functional
RPMI-8226 = experiment: Anticancer activity against human RPMI8226 cells; assay type: functional
A549 [23] = experiment: Anticancer activity against human A549 cells; assay type: functional
EKVX = experiment: Anticancer activity against human EKVX cells; assay type: functional
HOP-62 = experiment: Anticancer activity against human HOP62 cells; assay type: functional
HOP-92 [24] = experiment: Anticancer activity against human HOP92 cells; assay type: functional
NCI-H226 = experiment: Anticancer activity against human NCI-H226 cells; assay type: functional
NCI-H23 = experiment: Anticancer activity against human NCI-H23 cells; assay type: functional
NCI-H322M = experiment: Anticancer activity against human NCI-H322M cells; assay type: functional
NCI-H460 = experiment: Anticancer activity against human NCI-H460 cells; assay type: functional
NCI-H522 = experiment: Anticancer activity against human NCI-H522 cells; assay type: functional
COLO 205 = experiment: Anticancer activity against human COLO205 cells; assay type: functional
HCC 2998 = experiment: Anticancer activity against human HCC2998 cells; assay type: functional
HCT-116 [25] = experiment: Anticancer activity against human HCT116 cells; assay type: functional
HCT-15 = experiment: Anticancer activity against human HCT15 cells; assay type: functional
HT-29 [26] = experiment: Anticancer activity against human HT29 cells; assay type: functional
KM12 = experiment: Anticancer activity against human KM12 cells; assay type: functional
SW-620 = experiment: Anticancer activity against human SW620 cells; assay type: functional
SF-268 = experiment: Anticancer activity against human SF268 cells; assay type: functional
SF-295 [27] = experiment: Anticancer activity against human SF295 cells; assay type: functional
SF-539 = experiment: Anticancer activity against human SF539 cells; assay type: functional
SNB-19 = experiment: Anticancer activity against human SNB19 cells; assay type: functional
SNB-75 [28] = experiment: Anticancer activity against human SNB75 cells; assay type: functional
U-251 = experiment: Anticancer activity against human U251 cells; assay type: functional
LOX IMVI = experiment: Anticancer activity against human LOX IMVI cells; assay type: functional
Malme-3M = experiment: Anticancer activity against human MALME-3M cells; assay type: functional
M14 = experiment: Anticancer activity against human M14 cells; assay type: functional
SK-MEL-28 [29] = experiment: Anticancer activity against human SK-MEL-28 cells; assay type: functional
SK-MEL-5 = experiment: Anticancer activity against human SK-MEL-5 cells; assay type: functional
UACC-257 [30] = experiment: Anticancer activity against human UACC257 cells; assay type: functional
UACC-62 = experiment: Anticancer activity against human UACC62 cells; assay type: functional
IGROV-1 = experiment: Anticancer activity against human IGROV1 cells; assay type: functional
OVCAR-3 = experiment: Anticancer activity against human OVCAR-3 cells; assay type: functional
OVCAR-4 = experiment: Anticancer activity against human OVCAR4 cells; assay type: functional
OVCAR-5 = experiment: Anticancer activity against human OVCAR5 cells; assay type: functional
OVCAR-8 = experiment: Anticancer activity against human OVCAR8 cells; assay type: functional
SK-OV-3 = experiment: Anticancer activity against human SKOV3 cells; assay type: functional
786-0 [31] = experiment: Anticancer activity against human 786-0 cells; assay type: functional
A498 = experiment: Anticancer activity against human A498 cells; assay type: functional
ACHN = experiment: Anticancer activity against human ACHN cells; assay type: functional
CAKI-1 [32] = experiment: Anticancer activity against human CAKI1 cells; assay type: functional
SN12C = experiment: Anticancer activity against human SN12C cells; assay type: functional
TK-10 = experiment: Anticancer activity against human TK10 cells; assay type: functional
UO-31 = experiment: Anticancer activity against human UO31 cells; assay type: functional
PC-3 = experiment: Anticancer activity against human PC3 cells; assay type: functional

## O=C1CC(C(F)(F)F)Cc2nc3ccc(Br)cc3c(-c3ccccc3F)c21 (centres undefined)
BT-549 [1]
  pIC50: 4.76
BT-20
  pIC50: 4.63
SW480
  pIC50: 4.81
Jurkat
  pIC50: 4.94
MCF7 [2]
  inhibition at 10 µM: < 20%
T47D [3]
  inhibition at 10 µM: < 20%
HOP-92 [4]
  inhibition at 10 µM: 48%
A549 [5]
  inhibition at 10 µM: < 20%
HCT-116 [6]
  inhibition at 10 µM: 35%
HT-29 [7]
  inhibition at 10 µM: < 20%
MOLT-4 [8]
  inhibition at 10 µM: < 20%
[9]
  inhibition at 10 µM: 29%
CCRF-CEM [10]
  inhibition at 10 µM: 28%
CAKI-1 [11]
  inhibition at 10 µM: 45%
786-0 [12]
  inhibition at 10 µM: 62%
UACC-257 [13]
  inhibition at 10 µM: < 20%
SK-MEL-28 [14]
  inhibition at 10 µM: < 20%
SF-295 [15]
  inhibition at 10 µM: < 20%
SNB-75 [16]
  inhibition at 10 µM: < 20%

## O=C1CC(C(F)(F)F)Cc2nc3c(Br)cc(Br)cc3cc21 (centres undefined)
DU-145
  GI50: 4.13 µM
MCF7 [17]
  GI50: 0.13 µM
NCI/ADR-RES
  GI50: 2.55 µM
MDA-MB-231
  GI50: 5.89 µM
Hs-578T
  GI50: 16.3 µM
MDA-MB-435
  GI50: 1.56 µM
BT-549 [18]
  GI50: 4.63 µM
T47D [19]
  GI50: 3.55 µM
MDA-MB-468
  GI50: 5.11 µM
MCF7 [2]
  inhibition at 10 µM: 41%
T47D [3]
  inhibition at 10 µM: 66%
HOP-92 [4]
  inhibition at 10 µM: 57%
HCT-116 [6]
  inhibition at 10 µM: 64%
HT-29 [7]
  inhibition at 10 µM: 77%
MOLT-4 [8]
  inhibition at 10 µM: 31%
[9]
  inhibition at 10 µM: 58%
CAKI-1 [11]
  inhibition at 10 µM: 44%
786-0 [12]
  inhibition at 10 µM: 54%
UACC-257 [13]
  inhibition at 10 µM: 39%
SK-MEL-28 [14]
  inhibition at 10 µM: 40%
SF-295 [15]
  inhibition at 10 µM: 61%
SNB-75 [16]
  inhibition at 10 µM: 76%
CCRF-CEM [20]
  GI50: 21.9 µM
[21]
  GI50: 2.94 µM
K562
  GI50: 6.23 µM
MOLT-4 [22]
  GI50: 20.8 µM
RPMI-8226
  GI50: 4.32 µM
A549 [23]
  GI50: 4.65 µM
EKVX
  GI50: 3.54 µM
HOP-62
  GI50: 4.52 µM
HOP-92 [24]
  GI50: 11.2 µM
NCI-H226
  GI50: 10.7 µM
NCI-H23
  GI50: 3.14 µM
NCI-H322M
  GI50: 6.26 µM
NCI-H460
  GI50: 3.1 µM
NCI-H522
  GI50: 11.1 µM
COLO 205
  GI50: 3.23 µM
HCC 2998
  GI50: 2.6 µM
HCT-116 [25]
  GI50: 4.03 µM
HCT-15
  GI50: 3.35 µM
HT-29 [26]
  GI50: 4.42 µM
KM12
  GI50: 2.02 µM
SW-620
  GI50: 15.7 µM
SF-268
  GI50: 4.35 µM
SF-295 [27]
  GI50: 2.96 µM
SF-539
  GI50: 2.85 µM
SNB-19
  GI50: 11.3 µM
SNB-75 [28]
  GI50: 1.46 µM
U-251
  GI50: 11.9 µM
LOX IMVI
  GI50: 19 µM
Malme-3M
  GI50: 7.15 µM
M14
  GI50: 5.47 µM
SK-MEL-28 [29]
  GI50: 8.98 µM
SK-MEL-5
  GI50: 5.03 µM
UACC-257 [30]
  GI50: 16.1 µM
UACC-62
  GI50: 9.87 µM
IGROV-1
  GI50: 1.29 µM
OVCAR-3
  GI50: 1.79 µM
OVCAR-4
  GI50: 6.49 µM
OVCAR-5
  GI50: 1.91 µM
OVCAR-8
  GI50: 26 µM
SK-OV-3
  GI50: 7.55 µM
786-0 [31]
  GI50: 8.12 µM
A498
  GI50: 2.69 µM
ACHN
  GI50: 17.5 µM
CAKI-1 [32]
  GI50: 5.03 µM
SN12C
  GI50: 8.82 µM
TK-10
  GI50: 7.89 µM
UO-31
  GI50: 3.86 µM
PC-3
  GI50: 5.75 µM
